Measured values published in the kinase profiling compilation of Christmann-Franck et al. (2016).

Key:
Assay in all cases: KINOMEscan competition binding
Conditions in all cases: compound 10.0 µM
ERBB2 (human) = ERBB2 (human) (UniProt P04626)
MAP3K1 (human) = MAP3K1 (human) (UniProt Q13233)
SIK2 (human) = SIK2 (human) (UniProt Q9H0K1)
TXK (human) = TXK (human) (UniProt P42681)
TNK1 (human) = TNK1 (human) (UniProt Q13470)
ABL1 (human) = ABL1 (human) (UniProt P00519)
LATS1 (human) = LATS1 (human) (UniProt O95835)
DAPK1 (human) = DAPK1 (human) (UniProt P53355)
MAP3K6 (human) = MAP3K6 (human) (UniProt O95382)
Sequence of MAP3K6 (human) (O95382 whole entry, looked up): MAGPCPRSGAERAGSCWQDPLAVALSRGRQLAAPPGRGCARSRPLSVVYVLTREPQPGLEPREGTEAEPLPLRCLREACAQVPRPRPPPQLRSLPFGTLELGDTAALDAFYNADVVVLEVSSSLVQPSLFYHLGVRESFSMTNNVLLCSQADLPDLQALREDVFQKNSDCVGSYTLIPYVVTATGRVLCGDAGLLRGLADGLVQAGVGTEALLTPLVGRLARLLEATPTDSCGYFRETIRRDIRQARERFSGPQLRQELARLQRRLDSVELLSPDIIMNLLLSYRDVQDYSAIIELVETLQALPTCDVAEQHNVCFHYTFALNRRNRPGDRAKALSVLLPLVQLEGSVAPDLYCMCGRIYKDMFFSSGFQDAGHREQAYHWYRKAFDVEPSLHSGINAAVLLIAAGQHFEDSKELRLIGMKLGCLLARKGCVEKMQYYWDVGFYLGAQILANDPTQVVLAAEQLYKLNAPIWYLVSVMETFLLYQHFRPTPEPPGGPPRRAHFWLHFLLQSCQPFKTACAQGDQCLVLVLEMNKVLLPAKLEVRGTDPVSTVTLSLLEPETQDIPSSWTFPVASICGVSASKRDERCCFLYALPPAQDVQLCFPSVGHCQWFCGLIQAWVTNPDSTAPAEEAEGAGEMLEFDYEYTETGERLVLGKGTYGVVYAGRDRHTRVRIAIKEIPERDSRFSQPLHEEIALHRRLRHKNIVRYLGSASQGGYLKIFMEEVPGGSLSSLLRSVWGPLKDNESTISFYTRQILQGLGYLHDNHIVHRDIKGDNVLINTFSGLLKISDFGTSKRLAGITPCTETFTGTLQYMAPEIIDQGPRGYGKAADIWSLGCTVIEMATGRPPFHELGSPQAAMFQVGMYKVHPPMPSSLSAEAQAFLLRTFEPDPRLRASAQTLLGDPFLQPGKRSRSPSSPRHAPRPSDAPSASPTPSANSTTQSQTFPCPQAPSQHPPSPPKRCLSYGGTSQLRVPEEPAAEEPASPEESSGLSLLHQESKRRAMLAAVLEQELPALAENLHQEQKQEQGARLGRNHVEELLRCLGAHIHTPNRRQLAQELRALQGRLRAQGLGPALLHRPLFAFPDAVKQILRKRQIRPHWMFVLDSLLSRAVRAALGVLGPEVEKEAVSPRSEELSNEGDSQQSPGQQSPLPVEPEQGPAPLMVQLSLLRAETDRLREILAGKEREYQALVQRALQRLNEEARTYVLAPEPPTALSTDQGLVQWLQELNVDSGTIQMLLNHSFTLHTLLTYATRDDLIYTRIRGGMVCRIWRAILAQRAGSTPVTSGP

PRKCD (human) = PRKCD (human) (UniProt Q05655)
PRKCE (human) = PRKCE (human) (UniProt Q02156)
CDK15 (human) = CDK15 (human) (UniProt Q96Q40)
INSRR (human) = INSRR (human) (UniProt P14616)
[1] = system: ABL1 (human), P00519 [H396P]
RPS6KA5 KD1 (human) = RPS6KA5 KD1 (human) (UniProt O75582)
FLT1 (human) = FLT1 (human) (UniProt P17948)
MAP2K6 (human) = MAP2K6 (human) (UniProt P52564)
CDK19 (human) = CDK19 (human) (UniProt Q9BWU1)
LTK (human) = LTK (human) (UniProt P29376)
CSNK2A1 (human) = CSNK2A1 (human) (UniProt P68400)
CAMK2D (human) = CAMK2D (human) (UniProt Q13557)
PKMYT1 (human) = PKMYT1 (human) (UniProt Q99640)
[2] = system: EGFR (human), P00533 [747-751 del / S ins]
CDC2L2 (human) = CDC2L2 (human) (UniProt Q9UQ88)
Sequence of CDC2L2 (human) (Q9UQ88 whole entry, looked up): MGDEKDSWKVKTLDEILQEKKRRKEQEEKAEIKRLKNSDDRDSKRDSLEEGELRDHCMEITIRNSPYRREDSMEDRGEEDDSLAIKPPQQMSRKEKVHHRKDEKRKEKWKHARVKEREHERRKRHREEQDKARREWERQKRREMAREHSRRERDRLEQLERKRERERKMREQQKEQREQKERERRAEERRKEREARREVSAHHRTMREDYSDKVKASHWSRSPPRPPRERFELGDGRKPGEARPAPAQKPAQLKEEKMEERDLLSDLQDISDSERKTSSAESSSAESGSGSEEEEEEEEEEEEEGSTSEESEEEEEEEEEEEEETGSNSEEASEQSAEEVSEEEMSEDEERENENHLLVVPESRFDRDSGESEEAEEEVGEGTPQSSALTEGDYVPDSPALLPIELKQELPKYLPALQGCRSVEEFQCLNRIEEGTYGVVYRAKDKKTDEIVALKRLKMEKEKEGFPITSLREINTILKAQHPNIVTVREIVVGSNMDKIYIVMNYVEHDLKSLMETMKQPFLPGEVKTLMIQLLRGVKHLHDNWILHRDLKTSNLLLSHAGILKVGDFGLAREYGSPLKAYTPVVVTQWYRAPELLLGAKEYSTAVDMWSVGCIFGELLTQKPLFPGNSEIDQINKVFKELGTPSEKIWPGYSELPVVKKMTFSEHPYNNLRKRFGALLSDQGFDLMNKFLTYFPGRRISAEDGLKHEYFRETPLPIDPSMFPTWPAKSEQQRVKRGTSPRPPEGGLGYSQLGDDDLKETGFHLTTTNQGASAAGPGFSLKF

LIMK2 (human) = LIMK2 (human) (UniProt P53671)
SRMS (human) = SRMS (human) (UniProt Q9H3Y6)
CSK (human) = CSK (human) (UniProt P41240)
INSR (human) = INSR (human) (UniProt P06213)
TLK1 (human) = TLK1 (human) (UniProt Q9UKI8)
EPHA3 (human) = EPHA3 (human) (UniProt P29320)
MUSK (human) = MUSK (human) (UniProt O15146)
RPS6KA2 KD2 (human) = RPS6KA2 KD2 (human) (UniProt Q15349)
Sequence of RPS6KA2 KD2 (human) (Q15349 whole entry, looked up): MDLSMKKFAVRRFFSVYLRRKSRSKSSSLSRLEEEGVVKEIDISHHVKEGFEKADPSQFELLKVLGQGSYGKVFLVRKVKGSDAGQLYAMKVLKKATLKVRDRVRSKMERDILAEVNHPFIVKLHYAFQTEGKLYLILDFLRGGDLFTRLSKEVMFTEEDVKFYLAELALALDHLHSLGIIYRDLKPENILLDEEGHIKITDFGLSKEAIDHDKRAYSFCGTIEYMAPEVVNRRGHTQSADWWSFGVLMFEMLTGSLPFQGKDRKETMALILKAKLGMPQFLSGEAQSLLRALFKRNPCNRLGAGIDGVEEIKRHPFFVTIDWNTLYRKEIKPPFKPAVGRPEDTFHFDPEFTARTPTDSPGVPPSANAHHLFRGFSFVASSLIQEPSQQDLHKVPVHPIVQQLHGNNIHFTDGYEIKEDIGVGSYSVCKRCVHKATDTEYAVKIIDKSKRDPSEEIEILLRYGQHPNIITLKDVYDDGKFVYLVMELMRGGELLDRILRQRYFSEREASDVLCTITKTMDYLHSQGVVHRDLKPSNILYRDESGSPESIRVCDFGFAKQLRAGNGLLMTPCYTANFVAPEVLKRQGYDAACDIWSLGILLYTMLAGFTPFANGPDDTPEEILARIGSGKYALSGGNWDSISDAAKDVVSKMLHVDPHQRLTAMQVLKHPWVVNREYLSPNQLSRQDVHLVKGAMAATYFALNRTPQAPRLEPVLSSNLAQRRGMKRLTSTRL

MAST1 (human) = MAST1 (human) (UniProt Q9Y2H9)
Sequence of MAST1 (human) (Q9Y2H9 whole entry, looked up): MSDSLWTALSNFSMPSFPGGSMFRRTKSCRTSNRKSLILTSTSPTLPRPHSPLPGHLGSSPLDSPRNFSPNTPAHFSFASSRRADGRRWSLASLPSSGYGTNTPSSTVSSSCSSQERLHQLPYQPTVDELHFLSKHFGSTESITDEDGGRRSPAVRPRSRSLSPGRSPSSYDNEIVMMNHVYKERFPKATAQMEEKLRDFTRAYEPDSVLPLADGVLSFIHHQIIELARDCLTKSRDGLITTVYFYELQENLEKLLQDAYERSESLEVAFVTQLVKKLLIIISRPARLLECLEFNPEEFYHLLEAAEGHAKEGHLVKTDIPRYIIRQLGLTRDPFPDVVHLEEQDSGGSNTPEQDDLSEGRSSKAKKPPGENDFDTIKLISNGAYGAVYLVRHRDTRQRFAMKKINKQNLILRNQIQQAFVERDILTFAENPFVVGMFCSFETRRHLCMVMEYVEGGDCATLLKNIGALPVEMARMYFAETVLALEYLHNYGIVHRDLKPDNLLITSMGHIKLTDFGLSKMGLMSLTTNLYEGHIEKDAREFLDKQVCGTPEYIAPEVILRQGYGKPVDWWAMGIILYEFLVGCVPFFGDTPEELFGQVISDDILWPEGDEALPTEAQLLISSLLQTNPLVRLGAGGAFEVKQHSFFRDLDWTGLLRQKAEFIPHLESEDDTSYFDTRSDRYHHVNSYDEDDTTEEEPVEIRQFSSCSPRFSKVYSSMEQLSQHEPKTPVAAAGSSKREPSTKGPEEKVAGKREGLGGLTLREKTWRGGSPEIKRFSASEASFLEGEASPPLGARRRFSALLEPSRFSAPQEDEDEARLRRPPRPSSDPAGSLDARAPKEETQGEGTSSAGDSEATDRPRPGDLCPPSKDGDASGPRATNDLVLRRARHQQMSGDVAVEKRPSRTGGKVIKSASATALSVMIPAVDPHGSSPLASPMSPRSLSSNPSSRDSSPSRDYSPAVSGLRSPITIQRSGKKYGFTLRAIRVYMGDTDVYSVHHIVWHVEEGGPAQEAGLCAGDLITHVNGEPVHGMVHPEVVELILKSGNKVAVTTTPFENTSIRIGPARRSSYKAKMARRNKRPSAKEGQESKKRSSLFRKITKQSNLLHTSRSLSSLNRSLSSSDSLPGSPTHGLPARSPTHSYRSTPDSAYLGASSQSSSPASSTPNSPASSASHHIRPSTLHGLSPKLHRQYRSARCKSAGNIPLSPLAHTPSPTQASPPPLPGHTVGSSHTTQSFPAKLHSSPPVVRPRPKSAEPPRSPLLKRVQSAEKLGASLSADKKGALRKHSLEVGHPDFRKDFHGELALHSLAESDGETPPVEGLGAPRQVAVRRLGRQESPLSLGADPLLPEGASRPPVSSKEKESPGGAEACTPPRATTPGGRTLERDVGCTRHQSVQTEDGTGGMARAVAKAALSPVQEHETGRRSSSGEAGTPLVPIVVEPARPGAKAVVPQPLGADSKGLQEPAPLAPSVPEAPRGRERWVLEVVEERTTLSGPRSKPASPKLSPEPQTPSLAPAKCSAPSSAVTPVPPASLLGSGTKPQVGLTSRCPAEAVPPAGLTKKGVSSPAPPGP

[3] = molecular target: JAK3 JH1 catalytic (human) (UniProt P52333)

Measured: kinase still bound, per cent of control

Sequence of TNK1 (human) (Q13470 whole entry, looked up): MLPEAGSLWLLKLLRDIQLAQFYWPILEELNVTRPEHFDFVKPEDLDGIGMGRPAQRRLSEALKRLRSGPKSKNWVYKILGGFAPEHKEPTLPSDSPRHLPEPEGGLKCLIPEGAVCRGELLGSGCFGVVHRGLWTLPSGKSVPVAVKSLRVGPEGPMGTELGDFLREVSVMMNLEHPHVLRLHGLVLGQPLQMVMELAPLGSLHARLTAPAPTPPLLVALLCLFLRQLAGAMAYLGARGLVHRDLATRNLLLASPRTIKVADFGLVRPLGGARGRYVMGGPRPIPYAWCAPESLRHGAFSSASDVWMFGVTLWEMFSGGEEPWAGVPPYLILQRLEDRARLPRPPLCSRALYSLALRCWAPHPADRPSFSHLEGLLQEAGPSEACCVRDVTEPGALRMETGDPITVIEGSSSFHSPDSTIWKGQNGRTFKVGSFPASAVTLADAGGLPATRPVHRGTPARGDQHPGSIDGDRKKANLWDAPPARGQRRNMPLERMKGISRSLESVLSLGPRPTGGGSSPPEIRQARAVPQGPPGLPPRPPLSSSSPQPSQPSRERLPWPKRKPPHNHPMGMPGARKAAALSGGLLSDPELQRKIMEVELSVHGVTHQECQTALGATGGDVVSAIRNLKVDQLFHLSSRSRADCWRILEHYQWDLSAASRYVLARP

CS(=O)(=O)N1CCN(Cc2cc3nc(-c4cccc5[nH]ncc45)nc(N4CCOCC4)c3s2)CC1
100%: ERBB2 (human) | MAP3K1 (human) | SIK2 (human) | TXK (human) | TNK1 (human) | ABL1 (human) | LATS1 (human) | DAPK1 (human) | MAP3K6 (human) | PRKCD (human) | PRKCE (human) | CDK15 (human) | INSRR (human) | [1] | RPS6KA5 KD1 (human) | FLT1 (human) | MAP2K6 (human) | CDK19 (human) | LTK (human) | CSNK2A1 (human) | CAMK2D (human) | PKMYT1 (human) | [2] | CDC2L2 (human) | LIMK2 (human) | SRMS (human) | CSK (human) | INSR (human) | TLK1 (human) | EPHA3 (human) | MUSK (human) | RPS6KA2 KD2 (human) | MAST1 (human) | [3]
